Laboratory results taken from article PMC11819603, “Development of a reliable, sensitive, and convenient assay for the discovery of new eIF5A hypusination inhibitors” (PLOS ONE, 2025).
Where two headings read alike, the source gives them in different places.

Assays:
[1] = target: T1, DHPS (Homo sapiens, UniProt P49366); assay: Hyp'Assay: cell-free eIF5A hypusination in 96-well plates (recombinant eIF5A, DHPS, DOHH; anti-hypusine antibody Hpu24), substance present in the DHPS step; assay type: biochemical
T1 construct: host or cells: E. coli BL21 (DE3)
T1 sequence (P49366 1-369): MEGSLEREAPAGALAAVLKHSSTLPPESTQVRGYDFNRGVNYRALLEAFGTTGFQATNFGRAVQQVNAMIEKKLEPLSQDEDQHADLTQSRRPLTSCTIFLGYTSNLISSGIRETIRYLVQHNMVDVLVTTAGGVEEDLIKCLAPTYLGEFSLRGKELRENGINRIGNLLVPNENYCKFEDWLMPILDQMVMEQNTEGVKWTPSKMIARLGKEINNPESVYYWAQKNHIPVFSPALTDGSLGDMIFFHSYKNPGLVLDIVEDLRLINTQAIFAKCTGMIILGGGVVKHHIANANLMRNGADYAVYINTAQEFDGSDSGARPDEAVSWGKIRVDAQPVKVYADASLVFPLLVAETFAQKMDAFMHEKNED

[2] = target: T1, DHPS; assay: Hyp'Assay without DOHH: deoxyhypusination of eIF5A revealed with Hpu98 antibody; assay type: biochemical; details: 5 μM spermidine
Excerpt: To address this issue, we compared the ability of GC7 to inhibit DHPS or DOHH by adding GC7 during the first step of the Hyp’Assay; when DHPS mediates the deoxyhypusination reaction (Fig 2A), or only during the second step, when DOHH hydroxylate deoxyhypusinated eIF5A. […] This confirms the specificity of GC7 towards DHPS. When finding new hypusination inhibitors adding them during the first or the second step of the Hyp’Assay will allow us to determine if the inhibition affects DHPS or DOHH. Another way to discriminate between DHPS or DOHH inhibitors would be to use Hpu98, an antibody that recognized both hypusinated and deoxyhypusinated eIF5A, instead of Hpu24, which is specific for hypusinated eIF5A [18]. […] We performed a new Hyp’Assay by omitting DOHH in the reaction mix and using the Hpu98 antibody. First, we performed a dose response experiment with spermidine at pH: 8.0 and 9.0 (Fig 3E). The Hyp’Assay allows the detection of deoxyhypusinated eIF5A in a spermidine-dependent manner. Under these conditions, deoxyhypusination was equally efficient at both pH tested. […] We also tested the ability of GC7 (Fig 3F) and CPX or EDTA (Fig 3G) to inhibit DHPS. […] This provided us with another method to distinguish between DHPS and DOHH inhibitors.
The cell-free reaction described in 4.4 is performed in triplicates in a 96-wells plate (MaxiSorp, ThermoFisher) in the presence of 3 μg of eIF5A, 2 μg of DHPS, and 2 μg of DOHH by well. The reaction product, hypusinated eIF5A, is adsorbed onto the plate overnight at 4°C. The plate is washed (100 μL/well) thrice with PBS-T (PBS– 0.05% Tween20), then saturated with 1% non-fat dry milk in PBS-T for 2 h at room temperature. The plate is washed thrice with PBS-T and incubated overnight at 4°C with the anti-hypusine antibody (1:2000 in saturation buffer, 50 μL/well). The next day and after 5 washes with PBS-T, HRP-coupled anti-rabbit secondary antibody diluted 1:5000 in saturation buffer (50 μL/well) is added for 2 h at room temperature.

[3] = system: eIF5A hypusination in MCF7 cells; assay: eIF5A hypusination in intact MCF7 cells, Western blot; assay type: cell-based, human; details: 24 h
Experimental: We tested the ability of the GC7 analogs to inhibit hypusination in intact cells. MCF-7 cells (Fig 5B), a classical model of breast cancer cell line, and HT29 cells (Fig 5C), a cell model of colorectal cancer, were treated with 40 μM of GC7, 1, 2, 3, and 4 for 24h. Cells were lysed and analyzed by Western blot. As observed, none of the molecules modified eIF5A expression. […] GC7 analogs inhibited hypusination from 35 to 55%.
The human breast cancer cell line MCF7 (HTB-22 ATCC) and colorectal adenocarcinoma HT29 (HTB-38 ATCC) were cultured in DMEM (Gibco) supplemented with 10% FBS (Dutscher), 10 U/mL penicillin, and […] streptomycin. 1 mM of aminoguanidine was added to the medium to inhibit the degradation of GC7 and polyamines by amine oxidase from the serum and the production of reactive oxygen species. Cells were maintained at 37°C, 5% CO2 in a humid atmosphere.
After treatment, cells were washed with ice-cold PBS and lysed in RIPA Buffer (50 mM Tris pH 7.5, 150 mM NaCl, 0.1% SDS, 0.5% Na Deoxycholate, 5 mM NaF, 2.5 mM Na4P2O7, 1% NP4O) containing a protease inhibitor cocktail (complete Roche). 10 μg of proteins were separated by SDS PAGE and transferred to a PVDF membrane (Immobilon-P Millipore). The membranes were probed with the appropriate primary antibody that was detected by horseradish peroxidase-conjugated secondary antibody (Jackson Immunoresearch) and visualized by chemiluminescence (ECL Amersham RPN 3244) using a Fuji LAS-4000 imager. ImageJ® software was used to quantify band intensity and the ratios of proteins of interest were normalized to a loading control. Full-length Western blots are provided in the supplementary data (S19, S20 Figs).

[4] = system: DHPS; details: read-out: IC50 previously reported, cited from earlier work

N=C(N)NCCCCCCCN [GC7, N1-guanyl-1,7-diaminoheptane]
concentration at which inhibition was complete ([1]; 5 μM spermidine): 1 µM
concentration at which inhibition was detectable ([1]; 5 μM spermidine): 0.01 µM
concentration at which the inhibitory effect began ([1]; 100 μM spermidine): 0.1 µM
concentration of maximal inhibitory effect ([1]; 100 μM spermidine): 10 µM
Relative hypusination of eIF5A, Mean (quantification from Figure 3D) ([1]; GC7 added during the DHPS step, 5 μM spermidine, CTRL 100,0): 4,227 a.u
hypusination signal, Mean (quantification from Figure 3A) ([1]; Spermidine 5 µM, GC7 1 (µM)): 54.02
hypusination signal, Mean (quantification from Figure 3A) ([1]; Spermidine 5 µM, GC7 10 (µM)): 19.57
hypusination signal, Mean (quantification from Figure 3A) ([1]; Spermidine 5 µM, GC7 100 (µM)): 16.79
hypusination signal, Mean (quantification from Figure 3A) ([1]; Spermidine 5 µM, GC7 1000 (µM)): 0.5077
hypusination signal, Mean (quantification from Figure 3A) ([1]; Spermidine 5 µM, GC7 10000 (µM)): 0
hypusination signal, Mean (quantification from Figure 3A) ([1]; Spermidine 100 µM, GC7 1 (µM)): 100
hypusination signal, Mean (quantification from Figure 3A) ([1]; Spermidine 100 µM, GC7 10 (µM)): 95.15
hypusination signal, Mean (quantification from Figure 3A) ([1]; Spermidine 100 µM, GC7 100 (µM)): 91.8
hypusination signal, Mean (quantification from Figure 3A) ([1]; Spermidine 100 µM, GC7 1000 (µM)): 51.9
hypusination signal, Mean (quantification from Figure 3A) ([1]; Spermidine 100 µM, GC7 10000 (µM)): 0.07615
effect on hypusination ([1]; added during the first step (DHPS), 5 μM spermidine): total inhibition of hypusination
inhibition at 1 µM ([1]; at 1 µM, 5 µM spermidine (reviewer's reading of Fig. 3)): ~95%
ability to inhibit deoxyhypusination [2]: efficient in inhibiting deoxyhypusination
Relative deoxyhypusination of eIF5A, Mean (quantification from Figure 3F, 3G) ([2]; CTRL 100,0, inhibitor concentration not given): 7,531 a.u
hypusinated eIF5A, Western blot quantification, Mean (Figure 5B) ([3]; 40 μM, Ctrl 100, 4 experiments): 20.45
inhibition at 40 µM ([3]; Homo sapiens): 80%
IC50 ([4]; ref 25): 17 nM
IC50 ([4]; ref 26): 50 nM
